Test results as given in patent publication US20040242487A1, “Regulation of eating behavior” (Joslin Diabetes Center, Inc., a Massachusetts corporation, priority 1995, published 2004).
Entries after “also recorded” stand apart in the source; their conditions may differ.

Columns and labels:
[1] = target: T1, MC3-R (Mus musculus, UniProt P33033); experiment: HEK-293 assay: ACTH binding to MC3-R after exposure to MCH; type: cell-based; conditions: HEK-293 cells stably transfected with MC3-R; exposure to 10^-7 M MCH for 20 minutes or overnight
T1 construct: expressed in transfected cells; host or cells: HEK-293 (human kidney), stably transfected
T1 sequence (P33033 whole entry): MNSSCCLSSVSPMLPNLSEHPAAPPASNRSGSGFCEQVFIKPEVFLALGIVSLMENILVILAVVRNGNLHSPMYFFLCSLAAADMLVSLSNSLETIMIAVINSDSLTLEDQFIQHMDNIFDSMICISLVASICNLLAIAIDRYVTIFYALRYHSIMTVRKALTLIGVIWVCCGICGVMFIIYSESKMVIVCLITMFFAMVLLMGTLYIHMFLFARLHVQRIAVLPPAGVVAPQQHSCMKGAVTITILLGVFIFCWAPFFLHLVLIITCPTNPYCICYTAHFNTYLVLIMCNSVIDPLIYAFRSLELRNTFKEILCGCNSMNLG
Procedure: As discussed herein, heterologous human kidney, HEK-293 cells stably transfected with a plasmid carrying MC3-R can be used to assay MCH activity. It is not clear whether the MCH interaction with the MC3-R receptor is direct or indirect, but application of MCH results in an increase in binding of ACTH to the MC3-R receptor. […] Exposure of cells to 10^-7 M MCH for 20 minutes or overnight results in a 15-100% increase in ACTH binding.

[2] = test system: rat; experiment: In vivo rodent brain assay: intraventricular injection, eating behavior; conditions: intraventricular (third ventricle) injection of 5 μg MCH in 5 μl phosphate buffered saline, versus saline controls
Source text: As discussed herein, rodents, e.g., rats, can be used to assay MCH activity in vivo. A Teflon catheter can be inserted into the third ventricle of a rat and cemented into place. MCH or its analogs, e.g., agonists or antagonists, can be introduced by way of the catheter at various concentrations, and their effect on eating behavior determined.
To further evaluate the importance of MCH as an appetite regulator, a Teflon catheter was inserted into the third ventricle of a rat and cemented into place, followed by intraventricular injection of 5 μg of MCH in 5 μl of phosphate buffered saline. Control animals received only phosphate buffered saline.

Substance: melanocyte concentrating hormone [MCH]
- increase in ACTH binding [1]: 15-100%
- Kcal consumed within one hour [2]: more than doubling; also recorded: doubling
